In paper PMC2663033 (2009):

Legend:
[1] = tested on: aptamer III (DNA, G4) AGGGACGGGAAGAAAAGGAAAATCCTTAAAATGTGGAGGGT; experiment: UV-Vis, hyperchromicity of hemin Soret band; conditions: 20 mM K+, 200 mM Na+; 25 mM HEPES pH 7.4, 0.05% Triton X-100, 1% DMSO; 1 µM complex; about 2 x affinity of aptamer 4
[2] = tested on: aptamer I (DNA, G4) AGTCCGTGGGTAGGGCGGGTTGGGGGTGACT; experiment: peroxidase activity titration (ABTS-H2O2, A421); conditions: 20 mM K+, 200 mM Na+; 5.45 mM ABTS, 25 mM HEPES pH 8.0, 0.05% Triton X-100, 1% DMSO, 0.1 µM hemin
[3] = tested on: aptamer II (DNA, G4) AGTCCGTGGTTGGTGTGGTTGGGGTGACT; experiment: peroxidase activity (ABTS-H2O2); conditions: 20 mM K+, 200 mM Na+; 25 mM HEPES pH 8.0, 0.05% Triton X-100, 1% DMSO; 1 µM hemin plus 1 µM aptamer
[4] = tested on: aptamer 4 (DNA, G4) AGGGACGGGAAGAA/AAAATGTGGAGGGT; experiment: UV-Vis, hyperchromicity of hemin Soret band; conditions: 20 mM K+, 200 mM Na+; 25 mM HEPES pH 7.4, 0.05% Triton X-100, 1% DMSO; 1 µM complex
[5] = tested on: aptamer 1 (DNA, G4) GGGTAGGGCGGGTTGGG; experiment: peroxidase activity titration (ABTS-H2O2, A421); conditions: 20 mM K+, 200 mM Na+; 5.45 mM ABTS, 25 mM HEPES pH 8.0, 0.05% Triton X-100, 1% DMSO, 0.1 µM hemin

binding [1]: yes | Kd [2]: 194 ± 10 nM | binding [3]: yes | binding [4]: yes | Kd [5]: 258 ± 7 nM
Structure (SMILES): C=CC1=C(C)C2=Cc3c(C=C)c(C)c4[n]3[Fe]([Cl])[n]3c(c(C)c(CCC(=O)O)c3=CC3=NC(=C4)C(C)=C3CCC(=O)O)=CC1=N2
